Experimental data from patent US20250066420A1, “PD-L1 INHIBITORY PEPTIDE FOR CANCER IMMUNOTHERAPY” (Kansas State University Research Foundation, priority 2021, published 2025).
“Also recorded” adds a separate entry of the source.

Assays:
[1] = tested on: H1299 human non-small cell lung carcinoma cell line; experiment: Co-culture of activated Jurkat cells with H1299 lung cancer cells, cell death by flow cytometry; type: cell-based; conditions: for cell death in H1299 cells: Jurkat co-culture, 48 hours; for increase in cell death in H1299 cells: co-cultured with nonspecifically activated Jurkat cells, preliminary data
Description: (§1) • H1299 human non-small cell lung carcinoma cell line (ATCC) • Jurkat cells (Human T lymphoblasts, ATCC) • Primary cultured murine CD8^+ T cell primed with H1299 cell lysate (H1299 cell antigens)
Co-culture assay procedure. Dead cell populations were measured by flow cytometry at 48 hours post-co-culture using propidium iodide (PI) staining.

[2] = tested on: H1299 human non-small cell lung carcinoma cell line; experiment: Co-culture of H1299 cell antigen-specific T cells with H1299 lung cancer cells, cell death by flow cytometry; type: cell-based; conditions: for cell death in H1299 cells: antigen-specific T cell co-culture, 48 hours
Text: as §1
Mice were immunized with H1299 cells via tail vein injection. T cells were extracted from spleen, purified, and expanded by co-culturing with dendritic cells (DCs) stimulated with H1299 cell lysate. Expanded T cells were used in co-culture assay.

[3] = biological target: T1, human PD-L1 (Homo sapiens, UniProt Q9NZQ7); experiment: Bio-layer interferometry binding to biotinylated PD-L1; conditions: read-out: dissociation constant KD
T1 construct: biotin (biotinylated); purchased R&D Systems (Minneapolis, Minnesota)
Description: (§2) For each experiment, the BLItz machine was fitted with a fresh streptavidin biosensor tip (FortéBio). All tips were solvated in PBS buffer for 15-30 min before the experiments. The peptide was solvated at a concentration of approximately 1 mg/ml. The precise concentration of this stock solution (0.922 mg/ml) was obtained using the Pierce BCA Protein Assay Kit (Thermo Fisher Scientific) and multiple dilutions were made (corresponding to […]). A solution of biotinylated PD-L1 was applied to the biosensor tip during the loading phase of each experiment. PBS buffer (ix) was used for the baseline.

[4] = tested on: CT26 murine colon carcinoma cells; experiment: T cell-induced death of CT26 cells in co-culture with antigen-primed CD8+ T cells (flow cytometry); type: cell-based, mouse; conditions: peptide 10 μM, CT26:T cell 1:16
Description: a. Generation of CT26 cell antigen-specific CD8^+ T cells in vivo: First, the mice were subcutaneously (SQ) injected with CT26 cell lysate (0.5×10^6 cells/mouse in 200 μl PBS) at Day 0. JAWSII immature dendritic cells and CT26 cells previously irradiated with an X-ray dose of 100 Gy were cocultured at a 1:1 ratio for 48 h with an additional treatment of LPS (1 μg/ml). The cells (0.5×10^6 cells/mouse in 200 μl PBS) were collected and administered IV via tail vein to the mice at Day 7. At Day 21, the splenocytes were harvested and the CT26 antigen-specific CD8^+ T cells were labeled using MojoSort™ Mouse CD8 T Cell Isolation Kit (Biolegend, San Diego, CA) and isolated using magnetic beads-based separation protocol with MACS® Column (Miltenyi Biotec, Bergisch Gladbach, Germany) according to the manufacturer's instructions.
b. Evaluation of T cell-induced death of colon carcinoma cells in co-culture: Permanently GFP-expressing CT26 cells (GFP-CT26) produced by GFP-lentivirus vector transduction were seeded into 12 well-plate (1×10^4 cells/well) in the presence of murine interferon gamma (mIFNγ) at 25 ng/ml for 24 h. […] The effect of PD-L1ip3 in peptide form or gene transduction by Ad-PD-L1ip3 on CT26 cell death was analyzed by flow cytometry using LIVE/DEAD™ Fixable Violet Dead Cell Stain Kit (Invitrogen Corp). […]

[5] = tested on: murine LLC lung carcinoma cells; experiment: Cytotoxicity of antigen-primed CD8+ T cells toward LLC cells in co-culture; type: cell-based, mouse; conditions: 10 μM, 1:16 ratio, 18 and 36 hrs; positive control anti-PD-L1 antibody
Description: Generation of LLC cell antigen primed CD8^+ T cells in vivo: Mice were subcutaneously injected with LLC lysate (0.5×10^6 cells/mouse in 100 μl) at Day 0. X-ray (100 Gy) irradiated LLC cells were cocultured with JAWSII immature dendritic cells (JAWS-irrLLC) at a 1:1 ratio for 48 hrs in the presence of LPS (1 μg/ml). The cells were then intravenously injected into mice via tail vein (0.5×10^4 cells/mouse in 200 μl) at Day 7. At Day 21, the splenocytes were harvested and CD8^+ T cells (AP-CD8^+ T cells) were isolated using commercially available isolation kit.
Evaluation of T cell-induced death of lung carcinoma cells in co-culture: Permanently GFP-expressing LLC cells (1×10^4 cells) were treated with murine IFNγ (25 ng/ml) for 48 hrs. The cells were treated with 10 μM PD-L1ip3. PD-L1ip3SC (10 μM) and mouse anti-PD-L1 antibody (αPD-L1: 0.5 or 1.0 μg/ml) were used as control. The cells were then cocultured with antigen primed CD8^+ T cells 1:16 ratio. The cytotoxicity of AP-CD8^+ T cells toward LLC cells at 18 and 36 hrs after coculture was determined by flow cytometry.

[6] = tested on: CT26 cell tumors; experiment: CT26 subcutaneous allograft tumor growth in Balb/c mice; type: in vivo, mouse
Description: The anti-tumor effect of Ad-PD-L1ip3 and PD-L1ip3 in peptide form was evaluated in Balb/c mice using a CT26 murine colon carcinoma allograft model. The CT26 cells were transduced with 100 MOI of Ad-PD-L1ip3 or Ad-PD-L1ip3SC. At 24 h after transduction, the cells were suspended into 0.6% agarose dissolved in RPMI 1640. After filling agarose-cell mixture into 1 ml syringe equipped with 27G needle, it was solidified on ice. Mice were anesthetized with isoflurane and injected subcutaneously into the back with a 5×10^5 CT26 cells in 50 μl cell-agarose mixture. The intraperitoneal administration of PD-L1ip3 peptide (10 mg/kg) was carried out at 1 week after CT26 inoculation for 13 days (every day, totaling 13 injections). The PBS control was injected intraperitoneally with the same schedule. For the pre-immunization study, CT26 lysate (1×10^6 cells/100 μl PBS) were injected subcutaneously, 3 times with 1-week interval. The CT26 lysate was made by 3 times freeze-thaw cycles using liquid nitrogen. The mouse body weights were monitored at 2-day intervals. All mice were sacrificed […] after CT26 inoculation by cervical dislocation after exposure to saturated C02. The tumor size was measured by caliper every 2 days and the volume was calculated using the formula 0.5×(short diameter)^2×(long diameter). The tumors were weighed and fixed in 10% formalin for histological analysis.

[7] = tested on: CT26 murine colon carcinoma cells; experiment: MTT viability of CT26 cells without T cells; type: cell-based, mouse
Description: Evaluation of the Effect of PD-L1ip3 Peptide or Gene Transduction by Ad-PD-L1ip3 on Murine Colon Carcinoma Cells in Cell Culture The CT26 murine colon carcinoma cells (1,000 cells/well) were seeded into 96-well plate.
After 24 h, these cells were treated directly with PD-L1ip3 in peptide form (0.1-10 μg/ml) or indirectly with the PD-L1ip3 gene by Ad-PD-L1ip3 transduction (10, 20 and 50 MOI). The growth of the cells was evaluated by MTT assay 24-72 h after the treatments as described previously.
To evaluate therapeutic potential and cytotoxicity of the PD-L1ip3 peptide and transduction by Ad-PD-L1ip3, cell viability of CT26 cells was analyzed using MTT assay in the presence of mIFNγ (25 ng/ml), which was used to increase PD-L1 expression in cancer cells. The scrambled sequence version of PD-L1ip3 (PD-L1ip3SC) and the adenovirus carrying the corresponding scrambled sequence gene (Ad-PD-L1ip3SC) were used as negative controls.

[8] = biological target: T2, Biotinylated human PD-L1 (R&D Systems) (human, UniProt Q9NZQ7 19-239, limits assumed, biotinylated (site not stated)); experiment: bio-layer interferometry (BLItz), biotinylated PD-L1 on streptavidin tip, peptide in solution; negative control; scrambled peptide, negative control
T2 construct: Bought reagent, loaded on a streptavidin biosensor tip for bio-layer interferometry
Description: as §2
The peptide was synthesized commercially and the dissociation constant was determined by bio-layer interferometry.

[9] = peptide form 0.1-10 μg/ml, mIFNγ 25 ng/ml, 24-72 h, no T cells

T2 sequence (Q9NZQ7 19-239 limits assumed): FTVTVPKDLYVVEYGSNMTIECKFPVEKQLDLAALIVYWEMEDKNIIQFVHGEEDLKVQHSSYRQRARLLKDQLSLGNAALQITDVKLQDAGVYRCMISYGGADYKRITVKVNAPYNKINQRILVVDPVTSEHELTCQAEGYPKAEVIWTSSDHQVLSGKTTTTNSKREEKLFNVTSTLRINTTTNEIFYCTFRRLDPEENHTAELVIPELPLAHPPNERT

Question: PLDIRDRVHVEKSAAS [PD-L1ip4] was tested. Which “cell death in H1299 cells” value [1] did it give?
Answer: did not alter T cell-dependent death

Question: And the “cell death in H1299 cells” value [2]?
Answer: did not alter T cell-dependent death

Question: How did the Kd [3] turn out when H-GTRLKPLIICVQWPGL-OH [PD-L1ip3] was run?
Answer: 0.033 ± 0.003 mM

Question: What about the “cell death in H1299 cells” value [1] of the same molecule?
Answer: only minor increases of cell death

Question: And the “increase in cell death in H1299 cells” value [1]?
Answer: 30%

Question: And the “T cell-induced cell death of CT26 cells vs PBS” value [4]?
Answer: markedly increased

Question: And the “cell death in H1299 cells” value [2]?
Answer: clear increases of cell death

Question: What about the “increase in cell death in H1299 cells” value ([2]; co-cultured with H1299 cell antigen-primed T lymphocytes) of the same molecule?
Answer: 50%

Question: And the “cytotoxicity of antigen-specific CD8+ T cells toward LLC cells” value [5]?
Answer: Increased; also recorded: as good as or better than the positive control

Question: What about the average tumor volume ([6]; mice pre-treated with CT26 cell lysate 3 times, Ad 100 MOI, peptide 10 mg/kg/day i.p., untreated 729.6±310.3) of the same molecule?
Answer: 607.5±220.1 mm^3

Question: And the “change in tumor growth vs untreated CT26 cells” value ([6]; no lysate pretreatment)?
Answer: nor PD-L1ip3 in peptide form alone showed a statistically significant change in tumor growth

Question: And the “viability of CT26 cells (MTT)” value [7, 9]?
Answer: not affected

Question: For “H-VLIKIPWLRLPGCGTQ-OH [PD-L1ip3SC, reference compound]”, which “cell death in H1299 cells” value [1] is on record?
Answer: only minor increases of cell death

Question: What about the “increase in cell death in H1299 cells” value [1] of the same molecule?
Answer: 30%

Question: And the “viability of CT26 cells (MTT)” value ([7]; 10 μg/ml, 72 h, not significantly different from PBS)?
Answer: slight decrease of cell viability

Question: What about the “viability of CT26 cells (MTT)” value [7, 9] of the same molecule?
Answer: not affected

B1: PD-L1ip3SC (scrambled analogue of PD-L1ip3) (peptide)
peptide: VLIKIPWLRLPGCGTQ
notes: Negative control in BLI; also called scrambled peptide
Question: For B1, which Kd [8] is on record?
Answer: ~50 mM
